# Read-outs that look alike come from different tables or passages of the source.
# Legend:
# [1] = biological target: T1, rat frontal cortical SERT, rSERT (Rattus norvegicus, UniProt P31652); experiment: Competition binding assay, rat frontal cortical SERT, [3H]Paroxetine; conditions: Competitive binding, rat brain cortex homogenate, 20° C., n = 3, mean±s.e.m.
# T1 construct: rat frontal cortical SERT, rSERT; from tissue; host or cells: rat frontal cortex
# Method: The compounds of the invention are potent (sub-nanomolar concentration) pharmacological inhibitor binding ligands of the serotonin transporter. Examples of the in vitro inhibition competitive pharmacological binding SERT potencies are shown in Table 3, where the binding constant Ki values are reported as mean±s.e.m., n=3 or greater. The binding constants were determined using an established competition assay (rat frontal cortical SERT, rSERT; [^3H]Paroxetine, 3 h incubation time at 20° C., nonspecific binding determined as the difference in the absence and presence of saturating levels of non-radioactive 6-nitroquipazine) [Gerdes 2000] which is a modified method of Habert [Habert 1985]. […] The ligands of the invention are considered to have antidepressant qualities since they effectively compete with the radiolabelled form of the known antidepressant Paroxetine ([^3H]Paroxetine) at the serotonin transporter [Tatsumi 1997, Hyttel 1994].
# [2] = biological target: T2, human serotonin transporter (hSERT) (Homo sapiens, UniProt P31645); experiment: Inhibition of [3H]5-HT uptake into HEK-293 cells transfected with hSERT; assay type: cell-based; conditions: hSERT HEK-293 cells, 20° C.
# T2 construct: expressed in transfected cells; host or cells: HEK-293
# SERT [3] = biological target: T3, SERT (Rattus norvegicus, UniProt P31652); conditions: Rat brain, [3H]paroxetine; SERT competitive binding; cited from earlier work
# SERT [4] = biological target: T3, SERT; conditions: Rat brain, [3H]citalopram; SERT competitive binding; cited from earlier work
# T1 sequence (P31652 whole entry): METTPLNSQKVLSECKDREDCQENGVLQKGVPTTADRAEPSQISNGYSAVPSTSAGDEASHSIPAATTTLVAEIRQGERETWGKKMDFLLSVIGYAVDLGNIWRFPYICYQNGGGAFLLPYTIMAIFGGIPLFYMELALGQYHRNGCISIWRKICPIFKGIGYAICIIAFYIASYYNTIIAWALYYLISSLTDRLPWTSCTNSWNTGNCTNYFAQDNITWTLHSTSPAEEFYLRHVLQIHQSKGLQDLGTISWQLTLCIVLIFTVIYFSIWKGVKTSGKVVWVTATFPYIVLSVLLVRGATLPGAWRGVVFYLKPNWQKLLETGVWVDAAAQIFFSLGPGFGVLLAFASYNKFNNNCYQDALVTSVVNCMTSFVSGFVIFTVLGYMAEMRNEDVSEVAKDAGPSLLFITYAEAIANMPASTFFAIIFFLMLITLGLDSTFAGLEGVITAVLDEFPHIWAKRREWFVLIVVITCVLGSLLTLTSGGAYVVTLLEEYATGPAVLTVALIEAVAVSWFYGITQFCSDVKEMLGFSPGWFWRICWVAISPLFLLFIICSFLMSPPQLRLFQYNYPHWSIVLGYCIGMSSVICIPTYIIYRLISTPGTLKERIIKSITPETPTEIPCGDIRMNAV
# T3 sequence (P31652 whole entry): as above
# T2 sequence (P31645 whole entry): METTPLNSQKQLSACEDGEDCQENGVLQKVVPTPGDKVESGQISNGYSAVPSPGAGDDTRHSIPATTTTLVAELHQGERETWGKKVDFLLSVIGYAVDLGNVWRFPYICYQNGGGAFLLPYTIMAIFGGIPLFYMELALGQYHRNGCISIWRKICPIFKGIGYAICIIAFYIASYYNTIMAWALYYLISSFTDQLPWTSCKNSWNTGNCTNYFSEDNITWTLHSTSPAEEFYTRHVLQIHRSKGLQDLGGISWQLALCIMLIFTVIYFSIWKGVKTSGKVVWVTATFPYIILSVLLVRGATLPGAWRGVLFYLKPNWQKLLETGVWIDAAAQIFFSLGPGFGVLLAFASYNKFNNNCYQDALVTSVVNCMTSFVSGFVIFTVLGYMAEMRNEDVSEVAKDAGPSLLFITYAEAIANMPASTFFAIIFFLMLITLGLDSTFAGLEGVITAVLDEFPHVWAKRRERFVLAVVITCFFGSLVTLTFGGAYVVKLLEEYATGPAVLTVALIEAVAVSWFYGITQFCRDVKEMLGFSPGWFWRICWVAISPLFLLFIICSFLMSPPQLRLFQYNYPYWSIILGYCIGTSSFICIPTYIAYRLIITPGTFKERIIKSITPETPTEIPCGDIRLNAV
compound,measurement,setting,value
"O=[N+]([O-])c1ccc2nc(N3CCNCC3COCCCF)ccc2c1 (racemic) [Cpd 2, 2-[2-((3-Fluoropropoxy)methyl)piperazine-1-yl]-6-nitroquinoline]",Ki,[1],0.28 ± 0.09 nM
COCC1CNCCN1c1ccc2cc([N+](=O)[O-])ccc2n1 (racemic) [Cpd 13],Ki,[1],0.42 ± 0.01 nM
same,Ki,[2],0.47 nM
O=[N+]([O-])c1ccc2nc(N3CCNCC3CO)ccc2c1 (racemic) [Cpd 14],Ki,[1],0.68 ± 0.04 nM
O=[N+]([O-])c1ccc2nc(N3CCNC[C@@H]3COCCCF)ccc2c1 [Cpd 2R],Ki,[1],0.25 ± 0.08 nM
O=[N+]([O-])c1ccc2nc(N3CCNC[C@H]3COCCCF)ccc2c1 [Cpd 2S],Ki,[1],1.56 ± 0.88 nM
O=[N+]([O-])c1ccc2nc(N3CCNCC3)ccc2c1 [Cpd 5],Ki,SERT [3],0.16 nM
O=[N+]([O-])c1ccc2nc(N3CCNCC3)ccc2c1I [Cpd 6],Ki,SERT [3],0.17 nM
O=[N+]([O-])c1ccc2nc(N3CCNCC3)ccc2c1F [Cpd 8],Ki,SERT [3],0.25 nM
O=[N+]([O-])c1ccc2nc(N3CCNCC3)c(CCCF)cc2c1 [Cpd 10],Ki,SERT [4],0.31 nM
CC1CNCCN1c1ccc2cc([N+](=O)[O-])ccc2n1 (stereo not drawn) [Cpd 12],Ki,SERT [3],0.08 nM
COC[C@H]1CNCCN1c1ccc2cc([N+](=O)[O-])ccc2n1 [Cpd 13R],Ki,[1],0.25 ± 0.03 nM
same,Ki,[2],0.15 nM
"COC[C@@H]1CNCCN1c1ccc2cc([N+](=O)[O-])ccc2n1 [Cpd 13S, (S)-(−)-2-[2-(Methoxymethyl)piperazin-1-yl]-6-nitroquinolin]",Ki,[1],1.52 ± 0.1 nM
same,Ki,[2],1.66 nM
